US12257284B2, “Lantibiotics, lantibiotic-producing bacteria, compositions and methods of production and use thereof” (MEMORIAL SLOAN-KETTERING CANCER CENTER, priority 2017, dated 2025)
Non-standard residues stand in square brackets, D forms with d. No end group written: not given here. Dhb = C/C=C(\N)C(=O)O; Dha = C=C(N)C(=O)O

How the values were obtained:
VRE [1] = assay: Microscopy of VRE cultured with B. producta factor; format: cell-based, vancomycin-resistant Enterococcus; details: 10^8 CFU/mL VRE, 24 hours
Description: 10^7 CFU/mL B. producta was cultured for 24 hours anaerobically at 37° C. in BHIS. The culture supernatant was filtered through a 0.22 μm filter. Ammonium sulfate was added to the filtered culture supernatant at varying concentrations to precipitate proteins. Precipitated proteins were resolubilized in phosphate buffered saline (PBS) (2 mg/mL) and dialyzed. The dialyzed protein was returned to the original culture volume with supplemented PBS (the dialyzed protein was returned to the original culture volume with PBS) and samples were innoculated with 10^8 CFU/mL VRE and cultured for 24 hours anaerobically at 37° C. Bacteria were fixed onto slides for microscopy.

VRE [2] = assay: VRE cultured with ammonium sulfate precipitated, dialyzed B. producta protein, VRE CFU quantitated; format: cell-based, vancomycin-resistant Enterococcus
Description: 10^7 CFU/mL B. producta was cultured for 24 hours anaerobically at 37° C. in BHIS. The culture supernatant was filtered through a 0.22 μm filter. Ammonium sulfate was added to the filtered culture supernatant at varying concentrations to precipitate proteins. Precipitated proteins were resolubilized in phosphate buffered saline (PBS) (2 mg/mL) and dialyzed. The dialyzed protein was returned to the original culture volume with fresh culture medium and samples were innoculated with 10^3 CFU/mL VRE and cultured for 6 or 24 hours anaerobically at 37° C. […] 10^7 CFU/mL B. producta was cultured for 24 hours anaerobically at 37° C. in BHIS. The culture supernatant was filtered through a 0.22 μm filter. Ammonium sulfate was added to the filtered culture supernatant at varying concentrations to precipitate proteins. Precipitated proteins were resolubilized in phosphate buffered saline (PBS) (2 mg/mL) and dialyzed (the dialyzed protein was returned to the original culture volume with PBS) and samples were innoculated with 10^3 CFU/mL VRE and cultured for 6 or 24 hours anaerobically at 37° C.
10^7 CFU/mL B. producta was cultured for 24 hours anaerobically at 37° C. in BHIS. The culture supernatant was filtered through a 0.22 μm filter. 45% ammonium sulfate was added to the filtered culture supernatant to precipitate proteins. The precipitate was resolubilized in PBS (2 mg/mL), then dialyzed. The dialyzed protein was incubated with Proteinase K (1 mg/mL) for 1 hour at 37° C. These conditions are sufficient to completely digest BSA at a concentration of 100 μg/m, as evidenced by the […] in gel electrophoresis. The dialyzed protein/proteinase K solution was returned to its original volume in fresh culture medium and inoculated with 10^3 CFU/mL VRE the cultured for 6 or 24 hours anaerobically at 37° C.
10^7 CFU/mL B. producta was cultured for 24 hours anaerobically at 37° C. in BHIS. The culture supernatant was filtered through a 0.22 μm filter. 45% ammonium sulfate was added to the filtered culture supernatant to precipitate proteins. The precipitate was resolubilized in PBS (2 mg/mL), then dialyzed. The dialyzed protein was incubated at 100° C. for ten minutes. The heated, dialyzed protein solution was returned to its original volume in fresh culture medium and inoculated with 10^3 CFU/mL VRE the cultured for 6 or 24 hours anaerobically at 37° C.
10^7 CFU/mL B. producta was cultured for 24 hours anaerobically at 37° C. in BHIS. The culture supernatant was filtered through a 0.22 μm filter. Ammonium sulfate was added to the filtered culture supernatant at varying concentrations to precipitate proteins. […] Fecal pellets were collected 0, 5, 10 days after bacterial consortia transplant, and VRE was quantitated.

C. difficile = assay: Spectrum: bacterial survival with B. producta culture extract; format: cell-based; details: greater than 100 kDa concentrated supernatant; 6, 24 or 48 hours; FIG. 34
Description: (§1) 10^7 CFU/mL B. producta was cultured for 0, 6, 24 hours in BHIS anaerobically at 37° C. The culture supernatant at 0, 6, and 24 hours was filtered through a 0.22 μm filter, then concentrated by ultrafiltration with a molecular weight cut off greater than 100 kDa. The concentrated culture supernatant was then diluted to the original volume with fresh BHIS culture medium. 10^3 CFU/mL VRE, B. producta, C. bolteae, P. distasonis, B. sartorii, C. difficile, K pneumoniae, E. coli, S. aureus, E. faecalis, E. faecium, or L monocytogenes were cultured for 6, 24, or 48 hours anaerobically at 37° C.

E. faecalis = assay: as above; format: cell-based; details: greater than 100 kDa concentrated supernatant; 6, 24 or 48 hours; FIG. 34
Description: as §1

K. pneumoniae = assay: as above; format: cell-based; details: greater than 100 kDa concentrated supernatant; 6, 24 or 48 hours; FIG. 34
Description: as §1

P. distasonis = assay: as above; format: cell-based; details: greater than 100 kDa concentrated supernatant; 6, 24 or 48 hours; FIG. 34
Description: as §1

S. aureus = assay: as above; format: cell-based; details: greater than 100 kDa concentrated supernatant; 6, 24 or 48 hours; FIG. 34
Description: as §1

L. monocytogenes = assay: as above; format: cell-based; details: greater than 100 kDa concentrated supernatant; 6, 24 or 48 hours; FIG. 34
Description: as §1

E. faecium = assay: as above; format: cell-based; details: greater than 100 kDa concentrated supernatant; 6, 24 or 48 hours; FIG. 34
Description: as §1

B. producta = assay: as above; format: cell-based; details: greater than 100 kDa concentrated supernatant; 6, 24 or 48 hours; FIG. 34
Description: as §1

B. sartorii = assay: as above; format: cell-based; details: greater than 100 kDa concentrated supernatant; 6, 24 or 48 hours; FIG. 34
Description: as §1

E. coli = assay: as above; format: cell-based; details: greater than 100 kDa concentrated supernatant; 6, 24 or 48 hours; FIG. 34
Description: as §1

gram-positive bacteria = assay: Minimum inhibitory concentration by serial dilution against gram-positive bacterial strains; format: cell-based; details: dialyzed protein serially diluted in BHIS, 10^5 CFU/mL bacteria, 24 hours; FIG. 35
Description: 10^7 CFU/mL B. producta Caballero strain or Honda strain was cultured for 24 hours in BHIS anaerobically at 37° C. The culture supernatant was filtered through a 0.22 μm filter. Ammonium sulfate was added to the filtered culture supernatant at varying concentrations to precipitate proteins. Precipitated proteins were resolubilized in water (5 mg/mL) and dialyzed. The dialyzed protein or nisin (1:2) were serially diluted with fresh BHIS across a row of wells in a 96 well plate per gram-positive bacteria strain. 10^5 CFU/mL of various gram-positive bacterial strains indicated in FIG. 35 were cultured for 24 hours anaerobically at 37° C. The minimum inhibitory concentration (highest dilution at which gram-positive bacteria growth was inhibited) was thus identified.

VRE [3] = assay: VRE cultured in cecal supernatant of mice colonized with B. producta strains; format: cell-based, vancomycin-resistant Enterococcus; details: cecal content 7 days post-transplant, 100 mg/mL, filtered; VRE 10^3 CFU/mL, 6 hours; FIG. 20
Description: 6-8 week old, C57BL/6 mice were administered ampicillin (0.5 g/L) in the drinking water for 5 days, and subsequently orally gavaged with a bacterial consortia (10^7 CFU per bacterial isolate). Bacterial consortia for oral gavage were prepared by individually culturing the B. producta Caballero strain, or the B. producta Honda strain, on Columbia base medium (agar, peptones, cornstarch) plus 5% sheep blood agar plates, anaerobically at 37° C. overnight. Each isolate was subsequently harvested and resuspended in reduced phosphate buffered saline (PBS) to a final concentration of 10^8 CFU/mL. 7 days post-transplant, cecal content was harvested and resuspended in PBS to a final concentration of 100 mg/mL. Cecal supernatant was collected by filtration through a 0.22 μm filter. VRE inoculated at 10^3 CFU/mL in the cecal supernatant and incubated at 37° C. aerobically. VRE was cultured for 6 hours and quantitated.

Substance: B. producta factor: VRE-inhibiting factor secreted by B. producta, a lantibiotic according to the disclosure (SEQ. ID. No.: 3) (I[Dhb][Dha]I[Dha]LA[Dhb]PGAK[Dhb]GALMGAV[Dhb]GILM[Dhb]APVQ[Dhb]A[Dhb]AGAQI[Dhb]GK; not fully specified; also: lantibiotic (lanthionine bridges not given here))
- Phase contrast microscopy of VRE versus control (VRE [1]; FIG. 21): smaller, less numerous, more frequently in a single coccus arrangement and surrounded by more cellular debris
- Fluorescence microscopy of VRE (SYTO9 / propidium iodide) versus control (VRE [1]; FIG. 22): less viable
- Gram stain light microscopy of VRE versus control (VRE [1]; FIG. 23): generally lacked purple staining
- Number of VRE (CFU) over time in PBS (bactericidal effect) (VRE [2]; 10^5 CFU/mL VRE, 6-120 hours in PBS, FIG. 18): permanent decline in the number of VRE
- VRE inhibition after boiling (VRE [2]; 45% ammonium sulfate precipitate, 100° C. for ten minutes, FIG. 13): able to inhibit VRE
- VRE inhibition after Proteinase K digestion (VRE [2]; 45% ammonium sulfate precipitate, Proteinase K 1 mg/mL, 1 hour at 37° C., FIG. 12): able to inhibit VRE
- VRE inhibition by ammonium sulfate precipitate (VRE [2]; precipitate resolubilized, dialyzed, returned to volume with PBS, 6 or 24 hours, FIG. 11): inhibited VRE
- Inhibition of C. difficile (survival relative to negative control extract) (C. difficile): not
- Inhibition of E. faecalis (survival relative to negative control extract) (E. faecalis): inhibited
- Inhibition of K. pneumoniae (survival relative to negative control extract) (K. pneumoniae): not
- Inhibition of P. distasonis (survival relative to negative control extract) (P. distasonis): not
- Inhibition of S. aureus (survival relative to negative control extract) (S. aureus): inhibited
- Inhibition of L. monocytogenes (survival relative to negative control extract) (L. monocytogenes): inhibited
- Inhibition of E. faecium (survival relative to negative control extract) (E. faecium): inhibited
- Inhibition of B. producta (survival relative to negative control extract) (B. producta): not
- Inhibition of B. sartorii (survival relative to negative control extract) (B. sartorii): not
- Inhibition of E. coli (survival relative to negative control extract) (E. coli): not
- Inhibition of various gram-positive bacterial strains (minimum inhibitory concentration, highest dilution) (gram-positive bacteria): broadly inhibits gram-positive bacteria
- VRE growth in cecal supernatant of colonized mice (VRE [3]): inhibits VRE
